target: T1, MthK (Methanothermobacter thermautotrophicus, UniProt O27564); test: stopped-flow Tl+ flux (ANTS quench) in MthK liposomes, blocker equilibration time course; format: biochemical; settings: read-out: KD^ap
T1 construct: MthK channel with pore and cytosolic gating ring (RCK), purified in decyl maltoside, Superdex 200, reconstituted in DOPC:POPG 3:1 liposomes
From the text: stopped-flow Tl+ flux (ANTS quench) in MthK liposomes, blocker equilibration time course on MthK

First: CCCC[N+](CCCC)(CCCC)Cc1ccc(Br)cc1 [Br-bTBA, 4-bromobenzyltributylammonium bromide]
Second: CCCC[N+](CCCC)(CCCC)Cc1ccc(C(=O)c2ccccc2)cc1 [bbTBA, N-(4-[benzoyl]benzyl)-N,N,N-tributylammonium]
The Kd of the first is 3.7-fold higher: 2600 ± 400 nM for the first, 700 ± 200 nM for the second.

With `CCCCC[N+](CCCCC)(CCCCC)CCCCC` [TPeA] the Kd was 2100 ± 200 nM.
